Tested on: not listed separately
Assay: Antioxidant activity assessed as trolox equivalent of ORAC radical scavenging activity by ORAC-FL assay
Format: functional

Compared with CCCCC1OC(=O)c2cc(OCc3ccc(CN(CC)Cc4ccccc4)c(O)c3)ccc21 (stereo not given), CCCCC1OC(=O)c2cc(OCc3cccc(CN(CC)Cc4ccccc4)c3O)ccc21 (stereo not given) is higher in Activity: 1.15 for the first, 1.86 for the second.

Compared with CCCCC1OC(=O)c2cc(OCc3cccc(CN(CC)CC)c3O)ccc21 (stereo not given), CCCCC1OC(=O)c2cc(OCc3cccc(CN4CCCC4)c3O)ccc21 (stereo not given) is higher in Activity: 2.02 for the first, 2.38 for the second.

First: CCCCC1OC(=O)c2cc(OCc3cccc(O)c3)ccc21 (stereo not given)
Second: CCCCC1OC(=O)c2cc(OCc3ccccc3O)ccc21 (stereo not given)
The Activity of the first is lower: 0.88 for the first, 1.03 for the second.

First: CCCCC1OC(=O)c2cc(OCc3cccc(CN4CCN(C)CC4)c3O)ccc21 (stereo not given)
Second: CCCCC1OC(=O)c2cc(OCc3cccc(CN4CCCCC4)c3O)ccc21 (stereo not given)
The Activity of the first is higher: 2.33 for the first, 1.84 for the second.

CCCCC1OC(=O)c2cc(OCc3cccc(CN4CCOCC4)c3O)ccc21 (stereo not given) gave an Activity of 2.14.

Target: T1, Amine oxidase [flavin-containing] A (Homo sapiens, UniProt P21397)
T1 sequence (P21397 whole entry): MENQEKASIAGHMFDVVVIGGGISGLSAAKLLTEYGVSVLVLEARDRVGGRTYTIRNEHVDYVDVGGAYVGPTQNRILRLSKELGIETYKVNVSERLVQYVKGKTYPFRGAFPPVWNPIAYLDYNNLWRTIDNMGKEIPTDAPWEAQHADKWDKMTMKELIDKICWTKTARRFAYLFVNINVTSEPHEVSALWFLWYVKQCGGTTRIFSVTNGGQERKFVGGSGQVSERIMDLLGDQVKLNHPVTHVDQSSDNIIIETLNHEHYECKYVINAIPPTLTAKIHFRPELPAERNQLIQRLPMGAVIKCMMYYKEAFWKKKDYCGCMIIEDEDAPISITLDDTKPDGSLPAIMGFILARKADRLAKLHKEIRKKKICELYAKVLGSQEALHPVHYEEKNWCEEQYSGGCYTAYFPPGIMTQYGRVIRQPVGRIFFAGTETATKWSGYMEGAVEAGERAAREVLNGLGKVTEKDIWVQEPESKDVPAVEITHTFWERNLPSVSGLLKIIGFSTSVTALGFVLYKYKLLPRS
Assay: Inhibition of human MAO-A at 10 uM by fluorescence assay

First: CCCCC1OC(=O)c2cc(OCc3ccc(CN(CC)Cc4ccccc4)c(O)c3)ccc21 (stereo not given)
Second: CCCCC1OC(=O)c2cc(OCc3cccc(CN(CC)Cc4ccccc4)c3O)ccc21 (stereo not given)
The inhibition at 10 µM of the first is higher: 14.8% for the first, 5.4% for the second.

Compared with CCCCC1OC(=O)c2cc(OCc3cccc(CN(CC)CC)c3O)ccc21 (stereo not given), CCCCC1OC(=O)c2cc(OCc3cccc(CN4CCCC4)c3O)ccc21 (stereo not given) is higher in inhibition at 10 µM: 20.4% for the first, 23.5% for the second.

First: CCCCC1OC(=O)c2cc(OCc3cccc(O)c3)ccc21 (stereo not given)
Second: CCCCC1OC(=O)c2cc(OCc3ccccc3O)ccc21 (stereo not given)
The inhibition at 10 µM of the first is lower: 29.3% for the first, 30.3% for the second.

Going from CCCCC1OC(=O)c2cc(OCc3cccc(CN4CCN(C)CC4)c3O)ccc21 (stereo not given) to CCCCC1OC(=O)c2cc(OCc3cccc(CN4CCCCC4)c3O)ccc21 (stereo not given), the inhibition at 10 µM rises from 12.5% to 20%.

Compound CCCCC1OC(=O)c2cc(OCc3cccc(CN4CCOCC4)c3O)ccc21 (stereo not given) has an inhibition at 10 µM of 18.4%.

Target: Acetylcholinesterase (Electrophorus electricus) (UniProt O42275)
Sequence (O42275 24-633 limits assumed): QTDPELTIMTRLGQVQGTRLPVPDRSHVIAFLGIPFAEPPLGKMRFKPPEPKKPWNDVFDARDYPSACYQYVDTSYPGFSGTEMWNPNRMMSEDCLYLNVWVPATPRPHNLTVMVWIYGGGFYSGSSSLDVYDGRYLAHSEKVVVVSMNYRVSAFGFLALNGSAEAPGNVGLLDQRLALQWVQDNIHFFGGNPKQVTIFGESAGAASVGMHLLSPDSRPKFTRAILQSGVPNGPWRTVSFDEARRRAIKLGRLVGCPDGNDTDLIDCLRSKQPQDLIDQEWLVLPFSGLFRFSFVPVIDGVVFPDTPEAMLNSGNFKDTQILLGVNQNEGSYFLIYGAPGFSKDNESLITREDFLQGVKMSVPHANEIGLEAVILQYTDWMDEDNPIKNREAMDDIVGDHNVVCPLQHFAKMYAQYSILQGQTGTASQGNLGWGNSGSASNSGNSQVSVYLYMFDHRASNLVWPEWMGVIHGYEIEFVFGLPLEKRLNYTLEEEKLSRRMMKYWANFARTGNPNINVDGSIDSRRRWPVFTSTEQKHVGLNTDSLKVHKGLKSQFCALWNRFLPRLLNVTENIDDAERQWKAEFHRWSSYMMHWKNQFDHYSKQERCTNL
Assay: Inhibition of Electric eel AChE at 10 uM by Ellman's method

Compared with CCCCC1OC(=O)c2cc(OCc3cccc(CN(CC)Cc4ccccc4)c3O)ccc21 (stereo not given), CCCCC1OC(=O)c2cc(OCc3ccccc3O)ccc21 (stereo not given) is higher in inhibition: 15.3% for the first, 20.3% for the second.

Compared with CCCCC1OC(=O)c2cc(OCc3cccc(O)c3)ccc21 (stereo not given), CCCCC1OC(=O)c2cc(OCc3cccc(CN4CCN(C)CC4)c3O)ccc21 (stereo not given) is lower in inhibition: 38.6% for the first, 29.4% for the second.

Target: Butyrylcholinesterase (Rattus norvegicus) (UniProt Q9JKC1)
Sequence (Q9JKC1 as listed by the source): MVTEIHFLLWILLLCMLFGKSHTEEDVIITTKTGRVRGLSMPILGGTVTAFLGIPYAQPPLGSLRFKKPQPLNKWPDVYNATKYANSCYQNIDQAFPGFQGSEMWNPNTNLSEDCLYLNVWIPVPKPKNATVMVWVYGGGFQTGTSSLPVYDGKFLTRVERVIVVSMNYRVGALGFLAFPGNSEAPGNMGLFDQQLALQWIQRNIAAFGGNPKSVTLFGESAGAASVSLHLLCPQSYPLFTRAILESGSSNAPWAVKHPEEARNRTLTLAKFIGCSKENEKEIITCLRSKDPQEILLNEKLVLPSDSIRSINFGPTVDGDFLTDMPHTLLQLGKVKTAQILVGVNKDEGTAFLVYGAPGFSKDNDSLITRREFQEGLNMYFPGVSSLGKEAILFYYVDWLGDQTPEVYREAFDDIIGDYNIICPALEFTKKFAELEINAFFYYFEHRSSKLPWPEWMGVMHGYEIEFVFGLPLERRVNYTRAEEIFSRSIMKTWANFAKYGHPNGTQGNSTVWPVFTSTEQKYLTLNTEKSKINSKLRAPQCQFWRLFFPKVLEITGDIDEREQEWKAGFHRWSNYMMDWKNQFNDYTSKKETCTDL
Assay: Inhibition of Rat BuChE at 10 uM by Ellman's method

Compared with CCCCC1OC(=O)c2cc(OCc3ccc(CN(CC)Cc4ccccc4)c(O)c3)ccc21 (stereo not given), CCCCC1OC(=O)c2cc(OCc3cccc(CN(CC)Cc4ccccc4)c3O)ccc21 (stereo not given) is lower in inhibition: 5.6% for the first, less than 5% for the second.

Going from CCCCC1OC(=O)c2cc(OCc3cccc(CN(CC)CC)c3O)ccc21 (stereo not given) to CCCCC1OC(=O)c2cc(OCc3cccc(CN4CCCC4)c3O)ccc21 (stereo not given), the inhibition rises from less than 5% to 5.8%.

CCCCC1OC(=O)c2cc(OCc3cccc(O)c3)ccc21 (stereo not given) and CCCCC1OC(=O)c2cc(OCc3ccccc3O)ccc21 (stereo not given) cannot be ordered by inhibition: less than 5% for the first, less than 5% for the second.

First: CCCCC1OC(=O)c2cc(OCc3cccc(CN4CCN(C)CC4)c3O)ccc21 (stereo not given)
Second: CCCCC1OC(=O)c2cc(OCc3cccc(CN4CCCCC4)c3O)ccc21 (stereo not given)
The inhibition of the first is lower: less than 5% for the first, 14.2% for the second.

In the case of CCCCC1OC(=O)c2cc(OCc3cccc(CN4CCOCC4)c3O)ccc21 (stereo not given), the inhibition is reported as 5.8%.

Target: T2, Amine oxidase [flavin-containing] B (Homo sapiens, UniProt P27338)
T2 sequence (P27338 whole entry): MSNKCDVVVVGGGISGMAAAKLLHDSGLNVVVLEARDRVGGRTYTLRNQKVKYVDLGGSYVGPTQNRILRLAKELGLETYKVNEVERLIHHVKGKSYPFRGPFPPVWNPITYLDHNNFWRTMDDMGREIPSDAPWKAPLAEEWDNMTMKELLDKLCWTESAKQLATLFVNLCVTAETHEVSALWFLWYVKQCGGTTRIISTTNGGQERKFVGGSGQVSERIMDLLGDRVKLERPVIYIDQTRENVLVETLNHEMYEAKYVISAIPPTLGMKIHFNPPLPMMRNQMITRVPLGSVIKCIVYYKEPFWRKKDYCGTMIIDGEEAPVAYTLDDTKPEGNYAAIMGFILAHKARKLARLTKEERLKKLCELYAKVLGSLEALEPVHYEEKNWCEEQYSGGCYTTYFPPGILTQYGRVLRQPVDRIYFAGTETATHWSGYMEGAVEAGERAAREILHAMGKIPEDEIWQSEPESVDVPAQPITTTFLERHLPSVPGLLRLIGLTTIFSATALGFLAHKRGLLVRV
Assay: Inhibition of human MAO-B by fluorescence assay

Compared with CCCCC1OC(=O)c2cc(OCc3ccc(CN(CC)Cc4ccccc4)c(O)c3)ccc21 (stereo not given), CCCCC1OC(=O)c2cc(OCc3cccc(O)c3)ccc21 (stereo not given) is 1.7-fold higher in IC50: 1.96 µM for the first, 3.3 µM for the second.

Going from CCCCC1OC(=O)c2cc(OCc3ccccc3O)ccc21 (stereo not given) to CCCCC1OC(=O)c2cc(OCc3cccc(CN4CCOCC4)c3O)ccc21 (stereo not given), the IC50 rises from 2.07 µM to 7.63 µM (3.7-fold). The first is the more potent here.

Target: T2, Amine oxidase [flavin-containing] B
Assay: Inhibition of human MAO-B at 10 uM by fluorescence assay

Compared with CCCCC1OC(=O)c2cc(OCc3cccc(CN(CC)CC)c3O)ccc21 (stereo not given), CCCCC1OC(=O)c2cc(OCc3cccc(CN(CC)Cc4ccccc4)c3O)ccc21 (stereo not given) is higher in inhibition at 10 µM: 5.2% for the first, 12.5% for the second.

Going from CCCCC1OC(=O)c2cc(OCc3cccc(CN4CCCC4)c3O)ccc21 (stereo not given) to CCCCC1OC(=O)c2cc(OCc3cccc(CN4CCCCC4)c3O)ccc21 (stereo not given), the inhibition at 10 µM rises from 6.9% to 12.8%.

CCCCC1OC(=O)c2cc(OCc3cccc(CN4CCN(C)CC4)c3O)ccc21 (stereo not given) showed an inhibition at 10 µM of 32.3%.

Target: Acetylcholinesterase (Electrophorus electricus, UniProt O42275)
Sequence (O42275 whole entry): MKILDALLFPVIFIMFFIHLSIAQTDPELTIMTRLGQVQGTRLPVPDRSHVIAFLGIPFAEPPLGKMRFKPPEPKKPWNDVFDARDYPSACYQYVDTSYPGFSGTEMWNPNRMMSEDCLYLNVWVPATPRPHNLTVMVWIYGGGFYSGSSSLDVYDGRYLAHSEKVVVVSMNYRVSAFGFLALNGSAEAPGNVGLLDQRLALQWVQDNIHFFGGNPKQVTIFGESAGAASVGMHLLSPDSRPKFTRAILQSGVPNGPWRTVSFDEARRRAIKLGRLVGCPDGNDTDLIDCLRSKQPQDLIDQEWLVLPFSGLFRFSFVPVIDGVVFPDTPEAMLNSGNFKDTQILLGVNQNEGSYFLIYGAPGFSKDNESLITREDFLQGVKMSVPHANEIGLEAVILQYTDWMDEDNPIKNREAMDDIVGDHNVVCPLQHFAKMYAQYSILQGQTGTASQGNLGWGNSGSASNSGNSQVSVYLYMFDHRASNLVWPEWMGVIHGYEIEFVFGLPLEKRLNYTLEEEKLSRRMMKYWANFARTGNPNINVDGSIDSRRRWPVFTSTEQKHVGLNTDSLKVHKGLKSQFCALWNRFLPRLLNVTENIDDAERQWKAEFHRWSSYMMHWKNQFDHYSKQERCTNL
Assay: Inhibition of Electric eel AChE by Ellman's method

CCCCC1OC(=O)c2cc(OCc3ccc(CN(CC)Cc4ccccc4)c(O)c3)ccc21 (stereo not given) and CCCCC1OC(=O)c2cc(OCc3cccc(CN(CC)CC)c3O)ccc21 (stereo not given) are within 1.5-fold of each other in IC50: 20.5 µM for the first, 20.9 µM for the second.

Compared with CCCCC1OC(=O)c2cc(OCc3cccc(CN4CCCC4)c3O)ccc21 (stereo not given), CCCCC1OC(=O)c2cc(OCc3cccc(CN4CCCCC4)c3O)ccc21 (stereo not given) is 1.8-fold lower in IC50: 26.7 µM for the first, 14.5 µM for the second.

In the case of CCCCC1OC(=O)c2cc(OCc3cccc(CN4CCOCC4)c3O)ccc21 (stereo not given), the IC50 is reported as 22.4 µM.
